Source: US20260217693A1, “SRPK1 INHIBITORS AND METHODS OF USE” (ALLIANTHERA (SUZHOU) BIOPHARMACEUTICAL CO., LTD., priority 2023, published 2026)

biological target: SRPK1 (Homo sapiens, UniProt Q96SB4); assay: SRPK1 assay, Method 1 (ADP-Glo luminescence); format: biochemical; conditions: Method 1 (no asterisk): substrate Human SRSF1/SF2, 25° C. for 90 min, test compounds 30 μM top, 3-fold, duplicate
Experimental: The SPRK1 assay was performed as follows:
Method 1: The assay buffer was prepared. The reference compound was diluted to 10 mM. The test compounds were prepared at a concentration of 30 mM. Fifteen nL of compounds/DMSO were transferred to a multi-well plate. Then, 7.5 ul enzyme SRPK1 was added to each well, the plate was spun down at 1000 rpm and centrifuged for 30 sec. Then, 7.5 ul substrate Human SRSF1/SF2 was added to each well, the plate spun down at 1000 rpm and centrifuged for 30 sec. The plate was then incubated at 25° C. for 90 min. After 90 min, 5 μl of ADP-Glo™ Reagent was added to each well and the plate incubated at room temperature for 60 minutes. Then, 10 μl of Kinase Detection Reagent was added to each well and the plate incubate at room temperature for 60 minutes. The luminescence of each well was recorded on Envision. The test compounds were at 30 μM top, 3-fold, in duplicate, and the final concentration of DMSO was 0.1%.
All assays were performed using Method 1, except where indicated with an asterisk (*) in the below table, indicating Method 2 was used.

Sequence of SRPK1 (Q96SB4 whole entry): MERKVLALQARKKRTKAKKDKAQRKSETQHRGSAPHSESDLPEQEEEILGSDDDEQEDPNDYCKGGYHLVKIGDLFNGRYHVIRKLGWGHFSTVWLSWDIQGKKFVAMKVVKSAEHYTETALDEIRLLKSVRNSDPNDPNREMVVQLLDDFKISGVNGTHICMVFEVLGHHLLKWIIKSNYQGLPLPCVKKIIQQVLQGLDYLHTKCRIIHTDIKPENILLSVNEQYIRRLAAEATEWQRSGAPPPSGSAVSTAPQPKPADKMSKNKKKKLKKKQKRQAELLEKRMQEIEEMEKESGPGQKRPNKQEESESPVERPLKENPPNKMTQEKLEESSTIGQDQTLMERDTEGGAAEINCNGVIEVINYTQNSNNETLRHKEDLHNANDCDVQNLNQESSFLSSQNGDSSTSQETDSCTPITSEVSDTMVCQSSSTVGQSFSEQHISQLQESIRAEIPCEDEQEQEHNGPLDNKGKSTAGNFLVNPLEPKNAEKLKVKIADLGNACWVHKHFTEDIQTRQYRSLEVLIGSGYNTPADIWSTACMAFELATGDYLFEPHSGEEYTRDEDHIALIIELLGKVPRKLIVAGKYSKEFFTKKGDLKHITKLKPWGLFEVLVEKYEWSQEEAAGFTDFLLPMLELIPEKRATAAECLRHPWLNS

SMILES	IC50
O=C(Nc1cc(C(F)(F)F)cnc1N1CCC(O)CC1)c1ccncc1 [Compound 046, N-[2-(4-hydroxy-1-piperidyl)-5-(trifluoromethyl)-3-pyridyl]pyridine-4-carboxamide]	> 30000 nM
CC(=O)OC1CCN(c2ncc(C3CC3)cc2NC(=O)c2ccc(-c3ccncc3)o2)CC1 [Compound 033, 1-(5-cyclopropyl-3-(5-(pyridin-4-yl)furan-2-carboxamido)pyridin-2-yl) piperidin-4-yl acetate]	202 nM
O=C(Nc1cc(C(F)(F)F)cnc1N1CC(O)C1)c1ccc(C2CCOCC2)o1 [Compound 039]	> 30000 nM
NC(=O)C1(O)CCN(c2ncc(C(F)(F)F)cc2NC(=O)c2ccc(C3CCOCC3)o2)CC1 [Compound 096, 4-hydroxy-1-[3-[(5-tetrahydropyran-4-ylfuran-2-carbonyl)amino]-5-(trifluoromethyl)-2-pyridyl]piperidine-4-carboxamide]	18.3 nM
O=C(Nc1cc(C(F)(F)F)cnc1N1CCC(O)CC1)c1ccc(-c2cn[nH]c2)cc1 [Compound 129]	> 30000 nM
O=C(Nc1cc(C(F)(F)F)cnc1N1CCC(O)CC1)c1ccc(-c2ccncc2)o1 [Compound 004, N-(2-(4-hydroxypiperidin-1-yl)-5-(trifluoromethyl)pyridin-3-yl)-5-(pyridine-4-yl) furan-2-carboxamide]	79 nM
Cn1cc(-c2ncc(C(F)(F)F)cc2NC(=O)c2ccc(C3CCOCC3)o2)cn1 [Compound 011]	7490 nM
CC(=O)OC1CC2(CCN(c3ncc(C(F)(F)F)cc3NC(=O)c3ccc(C4CCOCC4)o3)CC2)C1 [Compound 059]	78.7 nM
CN(C)C(=O)C1(C)CCN(c2ncc(C(F)(F)F)cc2NC(=O)c2ccc(C3CCOCC3)o2)CC1 [Compound 045]	84.5 nM
CC1(CN)CCN(c2ncc(C(F)(F)F)cc2NC(=O)c2ccc(C3CCOCC3)o2)CC1 [Compound 043]	> 30000 nM
Nc1n[nH]cc1-c1ccc(C(=O)Nc2cc(C(F)(F)F)cnc2N2CCC(O)CC2)o1 [Compound 106, 5-(3-amino-1H-pyrazol-4-yl)-N-[2-(4-hydroxy-1-piperidyl)-5-(trifluoromethyl)-3-pyridyl]furan-2-carboxamide]	142 nM
O=C(Nc1cc(C(F)(F)F)cnc1N1CCC(O)CC1)c1ccc(-c2cn[nH]n2)o1 [Compound 108]	14.8 nM
O=C(Nc1cc(C(F)(F)F)cnc1N1CCN(Cc2ccccn2)CC1)c1ccc(C2CCOCC2)o1 [Compound 002, N-(2-(4-(pyridin-2-ylmethyl)piperazin-1-yl)-5-(trifluoromethyl)pyridin-3-yl)-5-(tetrahydro-2H-pyran-4-yl) furan-2-carboxamide]	309 nM
CC1(O)CCN(c2ncc(Cl)cc2NC(=O)c2ccc(C3CCOCC3)o2)CC1 [Compound 025]	170 nM
O=C(Nc1cc(C2CC2)cnc1N1CCc2[nH]ncc2C1)c1ccc(-c2cn[nH]c2)o1 [Compound 121]	> 30000 nM
O=C(Nc1cc(C(F)(F)F)cnc1N1CCC(O)CC1)c1ccc(-c2nc[nH]n2)o1 [Compound 105]	1530 nM
Cn1cc(-c2ccc(C(=O)Nc3cc(C(F)(F)F)cnc3N3CCC(O)CC3)o2)cn1 [Compound 054]	18.5 nM
CN1CCC(c2ncc(C(F)(F)F)cc2NC(=O)c2ccc(C3CCOCC3)o2)CC1 [Compound 071, N-(2-(1-methylpiperidin-4-yl)-5-(trifluoromethyl)pyridin-3-yl)-5-(tetrahydro-2H-pyran-4-yl) furan-2-carboxamide]	6870 nM
O=C(Nc1cc(C(F)(F)F)cnc1N1CCC(O)CC1)c1ccc(F)cn1 [Compound 089]	878 nM
O=C(Nc1cc(C2CC2)cnc1N1CCC(O)CC1)c1ccc(C2CCOCC2)o1 [Compound 029]	30.9 nM
O=C(Nc1cc(C(F)(F)F)cnc1-c1cn[nH]c1)c1ccc(C2CCOCC2)o1 [Compound 012]	109 nM
O=C(Nc1cc(C(F)(F)F)cnc1N1CCC(O)CC1)c1ccc(Cl)cn1 [Compound 093]	1260 nM
CC1(O)CCN(c2ncc(C3CC3)cc2NC(=O)c2ccc(C3CCOCC3)o2)CC1 [Compound 137, N-(5-Cyclopropyl-2-(4-hydroxy-4-methylpiperidin-1-yl)pyridin-3-yl)-5-(tetrahydro-2H-pyran-4-yl) furan-2-carboxamide]	210 nM
C[C@@H]1C[C@H](O)CCN1c1ncc(C2CC2)cc1NC(=O)c1ccc(-c2cn[nH]c2)o1 [Compound 127]	> 30000 nM
O=C(Nc1cc(C(F)(F)F)cnc1N1CCC(O)CC1)c1ccc(-c2cc[nH]n2)o1 [Compound 084]	60.7 nM
O=C(Nc1cc(C(F)(F)F)cnc1N1CCC(CO)C1)c1ccc(C2CCOCC2)o1 (stereo not drawn) [Compound 038]	24500 nM
O=C(Nc1cc(C(F)(F)F)cnc1-c1cn[nH]c1)c1ccc(-c2ccncc2)o1 [Compound 014]	> 30000 nM

SMILES	IC50
CC(=O)OC1CCN(c2ncc(C(F)(F)F)cc2NC(=O)c2ccc(-c3ccnnc3)o2)CC1 [Compound 049]	2340 nM
O=C(Nc1cc(C(F)(F)F)cnc1N1CCSCC1)c1ccc(C2CCOCC2)o1 [Compound 041]	> 30000 nM
O=C(Nc1cc(C(F)(F)F)cnc1N1CCC(O)CC1)c1ccc(-c2cccnc2)o1 [Compound 056]	23.5 nM
C[C@H]1C[C@H](O)CCN1c1ncc(C(F)(F)F)cc1NC(=O)c1ccc(C2CCOCC2)o1 [Compound 076]	14.2 nM
O=C(Nc1cc(C2CC2)cnc1N1CCC(O)CC1)c1ccc(-c2cn[nH]c2)cn1 [Compound 125]	> 30000 nM
O=C(Nc1cc(C(F)(F)F)cnc1N1CCc2[nH]ncc2C1)c1ccc(-c2cn[nH]c2)o1 [Compound 123]	> 30000 nM
CC1(C(=O)O)CCN(c2ncc(C(F)(F)F)cc2NC(=O)c2ccc(C3CCOCC3)o2)CC1 [Compound 044]	154 nM
O=C(Nc1cc(C(F)(F)F)cnc1N1CCCC(O)CC1)c1ccc(C2CCOCC2)o1 (stereo not drawn) [Compound 031]	360 nM
O=C(Nc1cc(C(F)(F)F)cnc1N1CCC2(CC1)CC(O)C2)c1ccc(C2CCOCC2)o1 [Compound 060]	51.9 nM
O=C(Nc1cc(C(F)(F)F)cnc1N1CCC(O)CC1)c1ccc(-c2cnccn2)o1 [Compound 074, N-(2-(4-hydroxypiperidin-1-yl)-5-(trifluoromethyl)pyridin-3-yl)-5-(pyrazin-2-yl) furan-2-carboxamide]	641 nM
O=C(Nc1cc(C(F)(F)F)cnc1N1CCC(CO)CC1)c1ccc(C2CCOCC2)o1 [Compound 083]	39.8 nM
Nc1cc(-c2ccc(C(=O)Nc3cc(C(F)(F)F)cnc3N3CCc4[nH]ncc4C3)o2)cc(N)n1 [Compound 130]	> 30000 nM
CN1CCC(c2ccc(C(=O)Nc3cc(C(F)(F)F)cnc3N3CCC(O)CC3)o2)CC1 [Compound 066, N-[2-(4-hydroxy-1-piperidyl)-5-(trifluoromethyl)-3-pyridyl]-5-(1-methyl-4-piperidyl) furan-2-carboxamide]	> 30000 nM
O=C1CCC2(CCN(c3ncc(C(F)(F)F)cc3NC(=O)c3ccc(C4CCOCC4)o3)CC2)N1 [Compound 081]	215 nM
O=C(Nc1cc(C(F)(F)F)cnc1N1CCC(O)CC1)c1cnn(C2CCOCC2)c1 [Compound 101]	> 30000 nM
COc1ccc(C(=O)Nc2cc(C(F)(F)F)cnc2N2CCC(O)CC2)nc1 [Compound 090]	1380 nM
COC(=O)C1(C)CCN(c2ncc(C(F)(F)F)cc2NC(=O)c2ccc(C3CCOCC3)o2)CC1 [Compound 032, methyl 4-methyl-1-[3-[(5-tetrahydropyran-4-ylfuran-2-carbonyl)amino]-5-(trifluoromethyl)-2-pyridyl]piperidine-4-carboxylate]	114 nM
O=C(Nc1cc(C(F)(F)F)cnc1N1CCc2[nH]ncc2C1)c1ccc(Br)o1 [Compound 115]	> 30000 nM
O=C(Nc1cc(C(F)(F)F)cnc1N1CCCCC1)c1ccc(C2CCOCC2)o1 [Compound 036]	> 30000 nM
CNC(=O)C1(C)CCN(c2ncc(C(F)(F)F)cc2NC(=O)c2ccc(C3CCOCC3)o2)CC1 [Compound 057]	30.5 nM
C[C@@H]1C[C@H](O)CCN1c1ncc(C2CC2)cc1NC(=O)c1ccc(Br)o1 [Compound 126]	> 30000 nM
CC1(O)CCN(c2ncc(C3CC3)cc2NC(=O)c2ccc(-c3ccncc3)o2)CC1 [Compound 136, N-(5-cyclopropyl-2-(4-hydroxy-4-methylpiperidin-1-yl)pyridin-3-yl)-5-(pyridin-4-yl) furan-2-carboxamide]	36 nM
CC1(O)CCN(c2ncc(Cl)cc2NC(=O)c2ccc(-c3ccncc3)o2)CC1 [Compound 024]	346 nM
O=C(Nc1cc(C(F)(F)F)cnc1N1CCC(O)CC1)c1cccc(Cl)n1 [Compound 087]	249 nM
NC(=O)C1CCN(c2ncc(C(F)(F)F)cc2NC(=O)c2ccc(C3CCOCC3)o2)CC1 [Compound 088]	71.7 nM
CC1(O)CCN(c2ncc(C(F)(F)F)cc2NC(=O)c2ccc(C3CCOCC3)o2)CC1 [Compound 027, N-[2-(4-hydroxy-4-methyl-1-piperidyl)-5-(trifluoromethyl)-3-pyridyl]-5-tetrahydropyran-4-yl-furan-2-carboxamide]	36.7 nM
O=C(Nc1cc(C2CC2)cnc1N1CCC(O)CC1)c1ccc(-c2ccncc2)o1 [Compound 034]	24.8 nM
